From ChEMBL document CHEMBL3132756, “Synthesis, structureactivity relationships and stereochemical investigations of new tricyclic pyridazinone derivatives as potential STAT3 inhibitors” (Medchemcomm, 2013)
Calls of active or inactive are those of the source. The calls are words filed in the database; no cut-off is given here.

What follows are compounds tested against Signal transducer and activator of transcription 3 (Homo sapiens) (UniProt P40763) (assay: Inhibition of STAT3 (unknown origin) expressed in human HCT116 cells at 10 uM by dual luciferase assay relative to (+) enantiomer). Settings: HCT-116.
Type: cell-based

Sequence of Signal transducer and activator of transcription 3 (Homo sapiens) (P40763 whole entry, the tested form may be a part): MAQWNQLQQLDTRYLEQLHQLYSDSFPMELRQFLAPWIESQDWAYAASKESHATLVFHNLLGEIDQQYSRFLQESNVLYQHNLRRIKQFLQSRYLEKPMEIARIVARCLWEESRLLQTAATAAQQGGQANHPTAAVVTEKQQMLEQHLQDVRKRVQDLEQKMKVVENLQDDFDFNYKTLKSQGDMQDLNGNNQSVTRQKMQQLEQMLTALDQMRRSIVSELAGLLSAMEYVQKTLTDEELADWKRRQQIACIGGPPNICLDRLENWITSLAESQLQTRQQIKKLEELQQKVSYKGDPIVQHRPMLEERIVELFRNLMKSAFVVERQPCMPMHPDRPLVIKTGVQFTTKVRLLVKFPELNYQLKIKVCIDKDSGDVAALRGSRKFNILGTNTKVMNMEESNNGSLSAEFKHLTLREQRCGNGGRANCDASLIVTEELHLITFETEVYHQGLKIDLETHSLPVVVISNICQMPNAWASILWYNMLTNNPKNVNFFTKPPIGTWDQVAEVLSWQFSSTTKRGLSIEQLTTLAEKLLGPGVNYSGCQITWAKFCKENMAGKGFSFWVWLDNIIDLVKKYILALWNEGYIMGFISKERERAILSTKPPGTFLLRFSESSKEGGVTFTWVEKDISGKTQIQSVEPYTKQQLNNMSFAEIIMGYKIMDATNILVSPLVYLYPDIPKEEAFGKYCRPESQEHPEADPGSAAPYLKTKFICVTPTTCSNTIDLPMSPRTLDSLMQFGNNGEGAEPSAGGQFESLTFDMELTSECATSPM

Row | SMILES | fold change (FC)
1 | CCOC(=O)CCCN1N=C2c3ccccc3CC[C@H]2CC1=O | 2

The compounds below were run against Signal transducer and activator of transcription 3 (Homo sapiens) (UniProt P40763) (assay: Binding affinity to STAT3 SH2 domain (unknown origin) pre-incubated 15 mins before (FITC)-GpYLPQTV probe and measured after 90 mins by Alpha screen assay). Settings: not given.

Row | SMILES | Activity
2 | CCOC(=O)CCCN1N=C2c3ccccc3CCC2CC1=O (racemic) | inactive

These compounds were tested against Signal transducer and activator of transcription 3 (Homo sapiens) (UniProt P40763) (assay: Inhibition of STAT3 (unknown origin) expressed in human HCT116 cells at 2 uM by dual luciferase assay). Settings: HCT-116.
Type: cell-based

Row | SMILES | inhibition
3 | CCOC(=O)CN1N=C2c3ccccc3CCC2CC1=O (stereo unspecified) | 3%
4 | CCOC(=O)CCCN1N=C2c3ccccc3CC2CC1=O (stereo unspecified) | 28%
5 | CCOC(=O)CCCN1N=C2c3ccccc3CCC2CC1=O (racemic) | 46%
6 | CCCCN1N=C2c3ccccc3CCC2CC1=O (stereo unspecified) | -9%
7 | CCOC(=O)CCCCN1N=C2c3ccccc3CCC2CC1=O (stereo unspecified) | 21%
8 | CCOC(=O)CCCN1N=C2c3ccc(Cl)cc3CCC2CC1=O (stereo unspecified) | 9%
9 | CCOC(=O)CCCn1nc2c(cc1=O)CCc1ccccc1-2 | 1%
10 | CCOC(=O)CCCCCCN1N=C2c3ccccc3CCC2CC1=O (stereo unspecified) | 22%
11 | C[C@H]1COC2=C1C(=O)C(=O)c1c2ccc2c1CCCC2(C)C | 25%
12 | O=C1CC2CCc3ccccc3C2=NN1 (stereo unspecified) | -6%
13 | O=C(O)CCN1N=C2c3ccccc3CCC2CC1=O (stereo unspecified) | -2%
14 | CCNCCCCN1N=C2c3ccccc3CCC2CC1=O (stereo unspecified) | 3%
15 | O=C(O)CCCN1N=C2c3ccccc3CCC2CC1=O (stereo unspecified) | 8%
16 | CCOC(=O)CCCCCN1N=C2c3ccccc3CCC2CC1=O (stereo unspecified) | 25%
17 | CCOC(=O)CCCN1N=C2c3cc(OC)cc(OC)c3CCC2CC1=O (stereo unspecified) | 23%
18 | CCOC(=O)CCN1N=C2c3ccccc3CCC2CC1=O (stereo unspecified) | 30%
19 | CCNC(=O)CCCN1N=C2c3ccccc3CCC2CC1=O (stereo unspecified) | 16%
20 | CCCCCN1N=C2c3ccccc3CCC2CC1=O (stereo unspecified) | 22%
21 | O=C1CC2CCc3ccccc3C2=NN1CCCc1nn[nH]n1 (stereo unspecified) | -9%
